From paper PMC3904413, “Allosteric modulation of GABAA receptors by extracellular ATP” (Molecular Brain, 2014)

Tested on: T1, GABAARs (native, cultured hippocampal neurons)
T1 construct: gene Gabra1
Settings: GABA 100 μM by pressure ejection, -60 mV; allosteric potentiator; error ± 0.3 in Figure 1 legend

- EC50: 2100 ± 200 µM
Structure (SMILES): Nc1ncnc2c1ncn2[C@@H]1O[C@H](COP(=O)(O)OP(=O)(O)OP(=O)(O)O)[C@@H](O)[C@H]1O [ATP]
